Values of other authors in patent US5869086A, “Systems for the controlled release of pilocarpine” (LTS Lohmann Therapie-Systeme GmbH, priority 1993, dated 1999).

Tests used:
[1] = tested on: postganglionic, parasympathetic acetylcholine receptors; conditions: textbook
[2] = tested on: patients suffering from glaucoma (eye); conditions: applied to the eye
[3] = tested on: adults; conditions: systemic, single maximum dose for adults; German Federal Board of Health
[4] = tested on: heart

dosage at which risks are likely to arise [3]: below 20 mg
hazard of high systemic doses ([4]; high doses, effect on the heart): hazardous to patients' life and health
SMILES: CC[C@@H]1C(=O)OC[C@@H]1Cc1cncn1C [pilocarpine, (3S, 4R)-3-ethyl-4,5-dihydro-4-(1-methyl-1H-imidazole-5-ylmethyl)-2(3H)-furanone]
action on acetylcholine receptors [1]: specifically stimulates the postganglionic, parasympathetic acetylcholine receptors
duration of one application [2]: 4 to 6 h
impairment of the heart function compared with carbachol ([4]; textbook, general application): impairment of the heart function is more distinct
